Test results as given in ChEMBL document CHEMBL2163296 (J Med Chem, 2012).
Activity calls are given as the source filed them. The calls are words filed in the database; no cut-off is given here.

Assays:
[1] = target: 5-hydroxytryptamine receptor 7 (Homo sapiens, UniProt P34969)
[2] = target: T1, 5-hydroxytryptamine receptor 2C (Homo sapiens, UniProt P28335)
T1 sequence (P28335 whole entry): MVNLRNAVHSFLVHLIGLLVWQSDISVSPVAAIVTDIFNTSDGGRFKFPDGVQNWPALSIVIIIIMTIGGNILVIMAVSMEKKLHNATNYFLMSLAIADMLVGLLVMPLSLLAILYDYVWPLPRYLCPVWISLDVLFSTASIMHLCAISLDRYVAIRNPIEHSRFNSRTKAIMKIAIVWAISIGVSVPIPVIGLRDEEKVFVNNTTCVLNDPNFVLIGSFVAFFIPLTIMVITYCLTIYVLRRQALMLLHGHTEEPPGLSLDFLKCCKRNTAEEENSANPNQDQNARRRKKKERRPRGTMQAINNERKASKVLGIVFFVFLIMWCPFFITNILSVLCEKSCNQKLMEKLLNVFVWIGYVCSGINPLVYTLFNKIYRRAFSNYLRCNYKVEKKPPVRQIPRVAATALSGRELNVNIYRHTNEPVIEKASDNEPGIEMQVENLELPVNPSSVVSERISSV

[3] = target: 5-hydroxytryptamine receptor 6 (Homo sapiens, UniProt P50406)
[4] = target: 5-hydroxytryptamine receptor 5A (Homo sapiens, UniProt P47898)
[5] = target: T2, 5-hydroxytryptamine receptor 1F (Homo sapiens) (UniProt P30939); test: Binding affinity to 5HT1F receptor after 1.5 hrs by scintillation counter
T2 sequence (whole entry): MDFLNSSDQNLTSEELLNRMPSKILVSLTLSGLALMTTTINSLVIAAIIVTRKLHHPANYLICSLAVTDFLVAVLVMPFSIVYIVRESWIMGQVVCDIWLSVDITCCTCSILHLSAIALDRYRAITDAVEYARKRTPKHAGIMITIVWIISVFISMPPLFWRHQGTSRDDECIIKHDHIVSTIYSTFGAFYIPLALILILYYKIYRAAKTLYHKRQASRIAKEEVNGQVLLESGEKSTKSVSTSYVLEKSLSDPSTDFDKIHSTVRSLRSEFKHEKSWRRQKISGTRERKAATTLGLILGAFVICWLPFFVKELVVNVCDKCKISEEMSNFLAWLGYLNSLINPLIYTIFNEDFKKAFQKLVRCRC

Sequence of 5-hydroxytryptamine receptor 7 (P34969 whole entry): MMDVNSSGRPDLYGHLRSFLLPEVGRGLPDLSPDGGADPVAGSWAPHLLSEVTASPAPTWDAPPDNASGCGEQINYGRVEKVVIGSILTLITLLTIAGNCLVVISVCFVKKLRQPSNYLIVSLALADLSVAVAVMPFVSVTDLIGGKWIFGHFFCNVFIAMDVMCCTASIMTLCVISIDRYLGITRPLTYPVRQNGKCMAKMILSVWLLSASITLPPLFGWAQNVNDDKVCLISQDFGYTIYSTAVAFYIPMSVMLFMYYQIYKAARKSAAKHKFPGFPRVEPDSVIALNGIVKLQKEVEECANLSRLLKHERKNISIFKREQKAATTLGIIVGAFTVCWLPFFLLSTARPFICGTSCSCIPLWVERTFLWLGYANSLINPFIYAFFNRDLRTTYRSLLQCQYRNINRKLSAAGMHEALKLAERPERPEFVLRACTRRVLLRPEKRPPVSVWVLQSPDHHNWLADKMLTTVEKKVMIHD
Sequence of 5-hydroxytryptamine receptor 6 (P50406 whole entry): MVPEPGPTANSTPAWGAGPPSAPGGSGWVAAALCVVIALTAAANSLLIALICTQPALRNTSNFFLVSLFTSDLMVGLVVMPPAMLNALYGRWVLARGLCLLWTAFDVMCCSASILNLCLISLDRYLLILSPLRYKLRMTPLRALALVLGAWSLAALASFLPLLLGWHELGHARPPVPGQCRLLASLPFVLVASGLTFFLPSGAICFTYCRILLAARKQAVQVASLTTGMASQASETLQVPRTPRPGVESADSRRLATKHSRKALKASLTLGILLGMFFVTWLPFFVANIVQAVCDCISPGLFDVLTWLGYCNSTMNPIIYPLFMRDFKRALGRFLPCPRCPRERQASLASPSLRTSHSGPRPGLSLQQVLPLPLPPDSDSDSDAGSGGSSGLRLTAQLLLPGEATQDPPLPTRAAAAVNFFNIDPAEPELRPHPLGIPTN
Sequence of 5-hydroxytryptamine receptor 5A (P47898 whole entry): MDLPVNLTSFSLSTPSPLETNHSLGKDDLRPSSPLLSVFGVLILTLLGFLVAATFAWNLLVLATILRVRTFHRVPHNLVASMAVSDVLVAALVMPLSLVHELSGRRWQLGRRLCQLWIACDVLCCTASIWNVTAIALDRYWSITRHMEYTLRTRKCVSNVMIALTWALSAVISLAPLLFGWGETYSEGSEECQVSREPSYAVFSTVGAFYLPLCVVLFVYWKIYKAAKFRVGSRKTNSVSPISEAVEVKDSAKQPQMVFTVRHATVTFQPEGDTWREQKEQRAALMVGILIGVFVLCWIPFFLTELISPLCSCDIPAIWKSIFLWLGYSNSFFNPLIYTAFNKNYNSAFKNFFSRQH

Ki [1]: 7.07 µM
Ki [2]: 417 nM
Ki [3]: 6.21 µM
Ki [4]: 3.3 µM
Activity [5]: inactive
SMILES: CNC(=O)c1cc(Oc2ccc(NC(=O)Nc3ccc(Cl)c(C(F)(F)F)c3)cc2)ccn1 [SORAFENIB]
